Laboratory results reported in patent publication US20250388529A1, “N-Substituted Phenylalkylamines and Their Use as Therapeutic Agents” (priority 2023, published 2025).
“And” between values parts separate entries of the source, which are not always exact repeats. Identical values can stand only once. “Also recorded” adds a separate entry of the source.

Key:
[1] = Chance observation of local anesthetic effect upon contact with mucous membranes; format: in vivo
[2] = molecular target: human Nav1.1 (Homo sapiens, UniProt P35498); experiment: Manual whole-cell patch clamp sodium current recording, HEK cells stably expressing human Nav1.1; format: cell-based; details: 10 μM
Method: Cell lines: Human Embryonic Kidney (HEK) 293 cells stably expressing human VGSC a subunit Nav1.1 (GenBank accession number NP_008851.3) were a gift from Dr. Massimo Mantegazza. Human VGSC β1 subunit GenBank accession number NP_001028.1) cDNA was transfected into this line to generate a second, stable line. Cells were cultured in Dulbecco's Modified Eagle Medium containing (4.5 g/L D-glucose, L-glutamine, 110 mg/L sodium pyruvate, 200 μg/mL G418, 100 U/mL penicillin/streptomycin). All cells were maintained in an incubator at 37° C. with 5% CO2.
Manual Sodium Current Recording: Sodium current (INa) was measured at room temperature using the manual whole-cell patch clamp technique with previously described electrophysiological methods (Chen et al., J Biol Chem., 2012; 287 (46): 39061-39069). Cells were plated on 12 mm diameter clear glass poly-D-lysine coated coverslips (Neuvitro) and used for electrophysiological recordings within 48 hours after plating. Cells were identified with an AIR upright confocal microscope (Nikon). […] Data were acquired with a Digidata 1440A interface (Molecular Devices) and analyzed using pClamp10 offline. […] All manual whole-cell INa recorded under XOB conditions was conducted after 3.9 minutes of perfusion unless indicated otherwise.

[3] = tested on: wildtype mouse prefrontal cortex layer V pyramidal neurons; experiment: Brain slice current clamp recording of membrane properties and action potential firing; format: cell-based
Method: Animals: Wildtype C57BL/6J mice were obtained from the Jackson Labs. Male and female pups, age postnatal day (P) 17-23, were used for the electrophysiological experiments. Animals were housed in the Unit for Laboratory Animal Medicine at the University of Michigan. All procedures were performed in accordance with the NIH and approved by the University of Michigan IACUC.
Brain Slice Preparation: Acute brain slices were prepared as described previously (Hull et al., Ann Clin Transl Neur., 2020; 7 (11): 2137-2149). Briefly, mice were anesthetized with isoflurane anesthesia and decapitated. Brains were carefully removed from the skull and placed in ice-cold carbogen-aerated slice solution containing (in mM): 110 sucrose, 62.5 NaCl, 2.5 KCl, 6 MgCl2, 1.25 KH2PO4, 26 NaHCO3, 0.5 CaCl2), 20 D-glucose, pH 7.35-7.40. Brains were blocked and slices were cut using a vibrating microtome (Electron Microscopy Sciences) in 250 μm thick coronal sections from prefrontal cortex. Slices were incubated in an aerated holding chamber containing slice solution for 30 minutes at room temperature and then incubated in 1:1 slice: artificial cerebrospinal solution (ACSF) for 30 minutes at 35° C. ACSF contained in mM (125 NaCl; 2.5 KCl; 1 MgCl2; 1.25 KH2PO4; 26 NaHCO3; 2 CaCl2); and 20 D-glucose (pH 7.35-7.40). Slices were then aerated in a holding chamber containing 100% ACSF for at least 30 min at room temperature before recording.
Action Potential Recording and Analysis: Individual brain slices were placed in an RC-26 recording chamber (Warner Instruments) and superfused with aerated ACSF at a flowrate of 2-3 mL/min equipped with an inline heater (Warner Instruments) to maintain the recording temperature at 33-35° C. Layer 5 pyramidal neurons were identified based on their large soma size, shape, and location using an AIR upright confocal microscope (Nikon) equipped with IR-DIC optics and a 40× water immersion objective. Only vertically oriented pyramidal cells were selected for recording. […] The junction potential was calculated to be 14.3 mV using the P-clamp junction potential calculator and all values presented in the study are uncorrected. Following break in at −94.3 mV in voltage clamp mode, the resting membrane potential was defined as the membrane potential in current clamp <10 s after initial break in for baseline or immediately after XOB perfusion. Repetitive action potential firing was elicited in whole-cell current clamp from the resting membrane potential in 1 s long current injections in 10 pA steps from −20 pA to +400 pA. There was a 1 s long 0 pA current injection between each sweep. Data were acquired at 20 kHz and were filtered at 10 kHz. Cells with an access resistance measured in voltage clamp >20 MΩ or RMP more depolarized than −64.3 mV were not used. Access resistance and pipette capacitance were compensated using bridge balance. Whole cell capacitance was measured using P-clamp whole cell capacitance compensation in voltage clamp with 10 mV depolarizing steps from −94.3 mV. Automated action potential (AP) quantification and analysis was performed using custom MATLAB (MathWorks) software. APs were defined as the voltage crossing 0 mV after a dV/dt>10 mV/ms, defined here as the AP threshold. Input resistance was calculated using Ohm's law with a −10 pA current injection from the resting membrane potential after 250 ms.

[4] = molecular target: T1, HiBiT-5-HT1A (Homo sapiens, UniProt P08908); experiment: cell-based; format: binding
T1 construct: expressed in transfected cells; host or cells: HEK293 (transient)
T1 sequence (P08908 whole entry): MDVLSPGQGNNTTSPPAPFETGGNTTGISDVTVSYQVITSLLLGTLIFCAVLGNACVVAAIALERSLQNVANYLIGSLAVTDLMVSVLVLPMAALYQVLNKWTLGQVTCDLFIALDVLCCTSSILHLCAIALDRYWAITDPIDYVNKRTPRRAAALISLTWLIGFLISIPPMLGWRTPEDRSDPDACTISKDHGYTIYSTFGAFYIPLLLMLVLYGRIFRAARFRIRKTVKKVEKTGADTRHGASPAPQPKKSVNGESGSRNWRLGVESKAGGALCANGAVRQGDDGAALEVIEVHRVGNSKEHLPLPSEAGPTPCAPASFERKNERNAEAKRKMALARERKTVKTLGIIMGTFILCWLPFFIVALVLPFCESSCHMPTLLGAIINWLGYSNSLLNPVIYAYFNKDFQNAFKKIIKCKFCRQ

[5] = molecular target: HiBiT-5-HT2C (Homo sapiens, UniProt P28335); experiment: cell-based
Sequence of HiBiT-5-HT2C (P28335 33-458): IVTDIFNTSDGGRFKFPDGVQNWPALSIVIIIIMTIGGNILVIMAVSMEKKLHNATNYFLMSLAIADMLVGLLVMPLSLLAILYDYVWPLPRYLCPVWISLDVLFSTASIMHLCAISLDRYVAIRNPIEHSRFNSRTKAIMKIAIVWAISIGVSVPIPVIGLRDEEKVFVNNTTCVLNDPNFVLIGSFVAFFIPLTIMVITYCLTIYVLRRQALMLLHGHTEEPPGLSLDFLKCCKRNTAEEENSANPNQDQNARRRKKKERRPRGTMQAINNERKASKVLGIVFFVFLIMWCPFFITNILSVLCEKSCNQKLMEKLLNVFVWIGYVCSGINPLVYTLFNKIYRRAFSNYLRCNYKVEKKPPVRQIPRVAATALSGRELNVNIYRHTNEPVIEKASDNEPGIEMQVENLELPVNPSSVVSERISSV

[6] = molecular target: T2, HiBiT-5-HT2A (Homo sapiens, UniProt P28223); experiment: NanoBRET kinetic measurement of ligand binding to HiBiT-5-HT2A (Motulsky-Mahan)
T2 construct: expressed in transfected cells; host or cells: HEK293 (transient)
T2 sequence (P28223 whole entry): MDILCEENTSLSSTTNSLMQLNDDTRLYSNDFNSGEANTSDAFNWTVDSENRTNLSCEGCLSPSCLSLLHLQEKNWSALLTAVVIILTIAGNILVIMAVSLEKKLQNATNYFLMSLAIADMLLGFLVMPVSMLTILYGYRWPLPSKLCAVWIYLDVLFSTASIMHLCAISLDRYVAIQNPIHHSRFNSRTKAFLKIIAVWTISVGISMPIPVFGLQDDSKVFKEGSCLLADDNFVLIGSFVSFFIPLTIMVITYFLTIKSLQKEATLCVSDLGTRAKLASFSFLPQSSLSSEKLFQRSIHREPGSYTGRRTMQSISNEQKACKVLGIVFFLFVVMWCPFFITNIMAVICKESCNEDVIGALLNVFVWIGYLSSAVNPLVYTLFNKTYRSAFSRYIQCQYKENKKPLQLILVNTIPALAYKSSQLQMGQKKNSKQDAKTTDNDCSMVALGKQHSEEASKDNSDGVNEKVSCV

COc1cc(CCNCCCCCCOCCCCc2ccccc2)c(OC)cc1Br [XOB, N-(4-bromo-2,5-dimethoxyphenethyl)-6-(4-phenylbutoxy)hexan-1-amine]
local anesthetic effect [1]: profound and long-lasting local anesthetic effect
original baseline INa density at 0 mV recovered after washout ([2]; 10 minutes of washing out): 17.5±3.64%
reduction of mean Nav1.1 peak INa density at 0 mV compared to baseline ([2]; acute perfusion, three cells): 94.1±1.31%
First AP Max dv/dt ([3]; 10 μM): 402.68±46.20 mV/ms and 402.68 mV/ms
First AP Min dv/dt ([3]; 10 μM): −91.32±8.95 mV/ms
First AP Peak Amplitude ([3]; 10 μM): 41.21±2.92 mV and 41.21 ± 2.29 mV
First AP Threshold ([3]; 10 μM): −38.43±1.23 mV
Input Resistance ([3]; 10 μM): 100.08±30.18 MΩ
Max Firing Rate @ 300 pA ([3]; 10 μM): 12.25 ± 1.53 Hz
Max Firing Rate @ 400 pA ([3]; 10 μM): 14±1.82 Hz
Resting Vm ([3]; 10 μM): −63.25±1.15 mV
Spike Width ([3]; 10 μM): 0.76 ± 0.06 ms
depolarization of the resting membrane potential ([3]; 10 μM vs baseline): +8.45±1.15 mV
reduction in maximum firing frequency at 400 pA current injections ([3]; 10 μM vs baseline): ~12 Hz
binding affinity at 5-HT1A (in words) [4]: no measurable affinity; also recorded: negligible binding affinity
Ki ([4]; equilibrium competitive displacement, Cheng-Prusoff, read-out: KI (binding affinity) at 5-HT1A): > 10 µM
Ki [5]: > 10 µM
association rate at 5-HT2A relative to serotonin (in words) [6]: two orders of magnitude slower
association rate at 5-HT2A, fold slower than serotonin [6]: about 24 fold
